Active and inactive are the calls of the source. The rule behind the calls is not given here.
Assays:
SW480 [1] = experiment: Inhibition of Wnt/beta-catenin signaling in human SW480 cells assessed as residual activity at IC50 concentration incubated for 12 hrs by Topflash/Fopflash Dual-Glo luciferase reporter assay; type: cell-based; settings: dose 30.0 µM
HCT-116 [2] = experiment: Inhibition of Wnt/beta-catenin signaling in human HCT-116 cells assessed as residual activity at IC50 concentration incubated for 12 hrs by Topflash/Fopflash Dual-Glo luciferase reporter assay; type: cell-based; settings: dose 30.0 µM
SW480 [3] = experiment: Inhibition of cell growth in human SW480 cells incubated for 48 to 72 hrs by XTT method; type: functional, cell-based
HCT-116 [4] = experiment: Inhibition of cell growth in human HCT-116 cells incubated for 48 to 72 hrs by XTT method; type: functional, cell-based
MDA-MB-231 [5] = experiment: Antiproliferative activity against human MDA-MB-231 cells at 1.48 to 40 uM incubated for 72 hrs by IncuCyte live-cell imaging analysis; type: functional, cell-based; settings: dose 1.48-40 µM
MDA-MB-231 [6] = experiment: Antiproliferative activity against human MDA-MB-231 cells at 40 uM incubated for 24 hrs by IncuCyte live-cell imaging analysis; type: functional, cell-based
MDA-MB-231 [7] = experiment: Antiproliferative activity against human MDA-MB-231 cells at 13.33 uM incubated for 72 hrs by IncuCyte live-cell imaging analysis; type: functional, cell-based
[8] = Metabolic stability in human liver microsomes assessed as intrinsic clearance per mg protein preincubated for 10 mins followed by NADP, glucose-6-phosphate and glucose-6-phosphate dehydrogenase addition and measured upto 60 mins by LC-MS/MS analysis; type: ADME, Microsome; settings: time < 70 min, read-out: CLH
[9] = Metabolic stability in human liver microsomes assessed as half life preincubated for 10 mins followed by NADP, glucose-6-phosphate and glucose-6-phosphate dehydrogenase addition and measured upto 60 mins by LC-MS/MS analysis; type: ADME, Microsome; settings: time < 70 min
[10] = Metabolic stability in mouse liver microsomes assessed as intrinsic clearance per mg protein preincubated for 10 mins followed by NADP, glucose-6-phosphate and glucose-6-phosphate dehydrogenase addition and measured upto 60 mins by LC-MS/MS analysis; type: ADME, Microsome; settings: time < 70 min, read-out: CLH
[11] = Metabolic stability in mouse liver microsomes assessed as half life preincubated for 10 mins followed by NADP, glucose-6-phosphate and glucose-6-phosphate dehydrogenase addition and measured upto 60 mins by LC-MS/MS analysis; type: ADME, Microsome; settings: time < 70 min

| Compound | EC50 (SW480 [3]) [µM] | EC50 (HCT-116 [4]) [µM] | microsomal CLint [8] [µL/min/mg] | half-life [9] [min] | microsomal CLint [10] [µL/min/mg] | half-life [11] [min] | Activity (SW480 [1]) [%] | Activity (HCT-116 [2]) [%] | Activity (MDA-MB-231 [5]) | Activity (MDA-MB-231 [6]) | Activity (MDA-MB-231 [7]) |
| --- | --- | --- | --- | --- | --- | --- | --- | --- | --- | --- | --- |
| O=S(=O)(Nc1cccc(-c2ccoc2)c1)c1ccc(C(F)(F)F)cc1 | > 50 | > 50 | – | – | – | – | 7.4 | 6.7 | – | – | – |
| O=S(=O)(Nc1ccc(-c2ccccc2)cc1)c1ccc(Br)cc1 | 31 | 27 | – | – | – | – | 8.1 | 3.2 | – | – | – |
| O=S(=O)(Nc1cccc(-c2ccccc2)c1)c1ccc(C(F)(F)F)cc1 | 43 | 48 | – | – | – | – | 28.3 | 36.4 | – | – | – |
| O=S(=O)(Nc1ccc(-n2ccnc2)cc1)c1ccc(C(F)(F)F)cc1 | 14 | 16 | – | – | – | – | 6 | 4.4 | – | – | – |
| O=S(=O)(Nc1cccc(-c2ccco2)c1)c1ccc(C(F)(F)F)cc1 | > 50 | > 50 | – | – | – | – | 5.3 | 2.7 | – | – | – |
| O=S(=O)(Nc1cccc(-c2ccccn2)c1)c1ccc(I)cc1 | 25 | 39 | – | – | – | – | 2.6 | 8.5 | – | – | – |
| CCOc1ccc2ccc(=O)oc2c1 | – | – | 94 | 14.8 | 712 | 1.9 | – | – | – | – | – |
| O=S(=O)(Nc1ccc(-c2cccs2)cc1)c1ccc(C(F)(F)F)cc1 | 45 | 39 | – | – | – | – | 26.6 | 33.1 | – | – | – |
| O=S(=O)(Nc1ccc(-c2ccoc2)cc1)c1ccc(C(F)(F)F)cc1 | > 50 | > 55 | – | – | – | – | 4.4 | 9.7 | – | – | – |
| O=S(=O)(Nc1ccc(-c2ccoc2)cc1)c1ccc(Br)cc1 | 35 | 62 | – | – | – | – | 28.4 | 32.1 | – | – | – |

More lines, main results first:

| EC50 (SW480 [3]) [µM] | EC50 (HCT-116 [4]) [µM] | microsomal CLint [8] [µL/min/mg] | half-life [9] [min] | microsomal CLint [10] [µL/min/mg] | half-life [11] [min] | Compound | Activity (SW480 [1]) [%] | Activity (HCT-116 [2]) [%] | Activity (MDA-MB-231 [5]) | Activity (MDA-MB-231 [6]) | Activity (MDA-MB-231 [7]) |
| --- | --- | --- | --- | --- | --- | --- | --- | --- | --- | --- | --- |
| 38 | 35 | – | – | – | – | O=S(=O)(Nc1cccc(-c2ccoc2)c1)c1ccc(Br)cc1 | 1.6 | 5.7 | – | – | – |
| 25 | 19 | – | – | – | – | O=S(=O)(Nc1cccc(-c2ccsc2)c1)c1ccc(Br)cc1 | 2.7 | 0.8 | Active | Active | – |
| 12 | 9 | – | – | – | – | O=S(=O)(Nc1cccc(-c2ccccc2)c1)c1ccc(Br)cc1 | 22.7 | 33.5 | Active | – | Active |
| 27 | 32 | – | – | – | – | O=S(=O)(Nc1ccc(-c2ccsc2)cc1)c1ccc(Br)cc1 | 3.7 | 8.6 | – | – | – |
| > 50 | > 50 | – | – | – | – | O=S(=O)(Nc1cccc(-n2ccnc2)c1)c1ccc(Br)cc1 | 3.6 | 3.1 | – | – | – |
